Source: the supplement of paper PMC6045584
± gives the standard deviation of the averaged measurements.

Tests used:
FORETINIB = compound: COc1cc2c(Oc3ccc(NC(=O)C4(C(=O)Nc5ccc(F)cc5)CC4)cc3F)ccnc2cc1OCCCN1CCOCC1 [FORETINIB]; test: surviving fraction relative to DMSO-only wells; higher = less growth inhibition; details: exposure time: 5 days
Summary of the method: (§1)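 Lines were retained only if, across three screens, replicate Pearson r was >0.7 and median Z' was >0.3. Viability was measured as CellTiter-Glo luminescence and reported as surviving fraction relative to the median of DMSO-only wells. Readings followed 10 minutes at room temperature, after log-phase tumour cells seeded at 250–500 per well in 384-well plates had been exposed, from 24 hours after seeding, continuously for five days to inhibitors at 0.5, 1, 5, 10, 50, 100, 500 and 1000 nM.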

MLN-4924 = compound: NS(=O)(=O)OC[C@@H]1C[C@@H](n2ccc3c(N[C@H]4CCc5ccccc54)ncnc32)C[C@@H]1O [MLN-4924]; test: as above; details: exposure time: 5 days
Summary of the method: as §1

| Test System | surviving fraction (FORETINIB; 0.5 nM) | surviving fraction (FORETINIB; 1 nM) | surviving fraction (FORETINIB; 5 nM) | surviving fraction (FORETINIB; 10 nM) | surviving fraction (FORETINIB; 50 nM) | surviving fraction (FORETINIB; 100 nM) | surviving fraction (FORETINIB; 500 nM) | surviving fraction (FORETINIB; 1000 nM) | surviving fraction (MLN-4924; 0.5 nM) | surviving fraction (MLN-4924; 1 nM) | surviving fraction (MLN-4924; 5 nM) | surviving fraction (MLN-4924; 10 nM) | surviving fraction (MLN-4924; 50 nM) | surviving fraction (MLN-4924; 100 nM) | surviving fraction (MLN-4924; 500 nM) | surviving fraction (MLN-4924; 1000 nM) |
| --- | --- | --- | --- | --- | --- | --- | --- | --- | --- | --- | --- | --- | --- | --- | --- | --- |
| JURKAT HAEMATOPOIETIC AND LYMPHOID TISSUE | 1 ± 0.034 | 0.979 ± 0.036 | 1.02 ± 0.031 | 0.971 ± 0.023 | 0.923 ± 0.019 | 0.976 ± 0.039 | 0.61 ± 0.021 | 0.601 ± 0.03 | 1.07 ± 0.016 | 1.02 ± 0.032 | 1.01 ± 0.025 | 0.931 ± 0.025 | 0.371 ± 0.012 | 0.154 ± 0.0059 | 0.0333 ± 0.00058 | 0.0313 ± 0.00058 |
| KPD BONE | 1.05 ± 0.059 | 1.03 ± 0.029 | 1.09 ± 0.03 | 1.11 ± 0.026 | 1.07 ± 0.04 | 1.04 ± 0.018 | 0.63 ± 0.037 | 0.303 ± 0.028 | 0.9553 ± 0.0032 | 0.985 ± 0.028 | 1.04 ± 0.057 | 1.09 ± 0.094 | 0.921 ± 0.045 | 0.736 ± 0.048 | 0.239 ± 0.017 | 0.183 ± 0.022 |
| LM7 BONE | 1.02 ± 0.028 | 1.04 ± 0.06 | 1.05 ± 0.016 | 1.02 ± 0.011 | 0.997 ± 0.015 | 1.03 ± 0.058 | 0.725 ± 0.042 | 0.216 ± 0.013 | 0.919 ± 0.081 | 1.02 ± 0.026 | 1.09 ± 0.059 | 0.946 ± 0.034 | 0.486 ± 0.033 | 0.256 ± 0.026 | 0.1 ± 0.02 | 0.1 ± 0.0098 |
| LNCAP PROSTATE | 1.04 ± 0.022 | 1.02 ± 0.046 | 0.968 ± 0.075 | 1.01 ± 0.1 | 0.997 ± 0.074 | 1.04 ± 0.039 | 0.261 ± 0.03 | 0.189 ± 0.028 | 0.939 ± 0.1 | 1 ± 0.021 | 0.803 ± 0.092 | 0.496 ± 0.051 | 0.085 ± 0.014 | 0.026 ± 0.001 | 0.0227 ± 0.0011 | 0.024 |
| MCF7 BREAST | 0.938 ± 0.026 | 0.958 ± 0.056 | 0.972 ± 0.031 | 0.993 ± 0.057 | 0.908 ± 0.052 | 0.959 ± 0.0097 | 0.669 ± 0.055 | 0.701 ± 0.066 | 0.889 ± 0.029 | 0.9226 ± 0.0022 | 0.935 ± 0.013 | 0.975 ± 0.027 | 0.641 ± 0.063 | 0.448 ± 0.062 | 0.265 ± 0.026 | 0.235 ± 0.016 |
| MDAMB134 BREAST | 0.888 ± 0.12 | 1.41 ± 0.042 | 0.916 ± 0.06 | 1.37 ± 0.026 | 0.86 ± 0.16 | 1.17 ± 0.32 | 0.939 ± 0.14 | 0.886 ± 0.033 | 0.904 ± 0.21 | 1.036 ± 0.0099 | 0.934 ± 0.12 | 0.731 ± 0.1 | 0.562 ± 0.14 | 0.393 ± 0.03 | 0.267 ± 0.0035 | 0.281 ± 0.005 |
| MDAMB157 BREAST | 0.967 ± 0.045 | 0.987 ± 0.035 | 1.1 ± 0.095 | 0.975 ± 0.0044 | 0.971 ± 0.074 | 0.934 ± 0.081 | 0.537 ± 0.085 | 0.231 ± 0.02 | 1 ± 0.019 | 0.966 ± 0.087 | 0.968 ± 0.07 | 0.931 ± 0.041 | 0.906 ± 0.09 | 0.743 ± 0.054 | 0.379 ± 0.043 | 0.267 ± 0.022 |
| MDAMB231 BREAST | 0.974 ± 0.018 | 0.985 ± 0.013 | 0.998 ± 0.017 | 1 ± 0.03 | 0.971 ± 0.0077 | 0.9367 ± 0.0039 | 0.489 ± 0.0095 | 0.449 ± 0.0084 | 0.9815 ± 0.006 | 0.978 ± 0.026 | 0.971 ± 0.025 | 0.933 ± 0.024 | 0.676 ± 0.0082 | 0.62 ± 0.035 | 0.243 ± 0.0094 | 0.175 ± 0.0081 |
| MDAMB361 BREAST | 0.794 ± 0.035 | 0.877 ± 0.15 | 0.803 ± 0.05 | 1.18 ± 0.11 | 0.9 ± 0.15 | 0.798 ± 0.021 | 0.918 ± 0.1 | 0.918 ± 0.073 | 0.894 ± 0.12 | 0.785 ± 0.028 | 0.829 ± 0.051 | 0.853 ± 0.1 | 0.735 ± 0.048 | 0.736 ± 0.061 | 0.594 ± 0.03 | 0.549 ± 0.042 |
| MDAMB436 BREAST | 0.976 ± 0.091 | 0.923 ± 0.086 | 0.982 ± 0.043 | 1.05 ± 0.14 | 1.02 ± 0.043 | 0.91 ± 0.2 | 0.856 ± 0.16 | 0.687 ± 0.047 | 0.946 ± 0.13 | 0.962 ± 0.082 | 0.961 ± 0.097 | 0.952 ± 0.13 | 0.555 ± 0.053 | 0.427 ± 0.037 | 0.272 ± 0.025 | 0.256 ± 0.016 |
| MDAMB453 BREAST | 1.1 ± 0.067 | 1.09 ± 0.062 | 1.12 ± 0.058 | 1.13 ± 0.087 | 1.12 ± 0.025 | 1.08 ± 0.04 | 0.952 ± 0.041 | 0.763 ± 0.035 | 1.1 ± 0.038 | 1.08 ± 0.056 | 1.07 ± 0.07 | 1.1 ± 0.066 | 0.589 ± 0.019 | 0.493 ± 0.034 | 0.363 ± 0.045 | 0.304 ± 0.017 |
| MDAMB468 BREAST | 1.02 ± 0.03 | 1.05 ± 0.059 | 1.12 ± 0.077 | 1.09 ± 0.03 | 1.15 ± 0.086 | 1.06 ± 0.076 | 0.928 ± 0.082 | 0.356 ± 0.014 | 1.15 ± 0.068 | 1.09 ± 0.062 | 1.13 ± 0.1 | 1.04 ± 0.11 | 0.436 ± 0.0053 | 0.302 ± 0.05 | 0.18 ± 0.0087 | 0.178 ± 0.021 |
| MFM223 BREAST | 1.17 ± 0.043 | 1.09 ± 0.041 | 1.18 ± 0.062 | 1.22 ± 0.034 | 1.133 ± 0.011 | 0.94 ± 0.023 | 0.417 ± 0.17 | 0.271 ± 0.13 | 1.43 ± 0.45 | 1.47 ± 0.56 | 1.33 ± 0.39 | 1.16 ± 0.56 | 0.586 ± 0.066 | 0.42 ± 0.032 | 0.181 ± 0.022 | 0.152 ± 0.062 |
| MG63 BONE | 1.05 ± 0.012 | 1.07 ± 0.048 | 1.09 ± 0.043 | 1.11 ± 0.05 | 0.901 ± 0.037 | 0.817 ± 0.026 | 0.567 ± 0.015 | 0.322 ± 0.02 | 1.03 ± 0.057 | 1.02 ± 0.046 | 1.07 ± 0.042 | 1.13 ± 0.054 | 0.4 ± 0.058 | 0.031 ± 0.0046 | 0.0287 ± 0.005 | 0.0287 ± 0.0023 |
| MHM BONE | 1.04 ± 0.015 | 1.01 ± 0.012 | 1.05 ± 0.015 | 1.08 ± 0.026 | 1.03 ± 0.017 | 0.973 ± 0.0092 | 0.859 ± 0.026 | 0.8 ± 0.016 | 0.973 ± 0.011 | 0.995 ± 0.024 | 1.04 ± 0.035 | 1.09 ± 0.038 | 1.37 ± 0.02 | 1.36 ± 0.015 | 0.39 ± 0.042 | 0.286 ± 0.015 |
| NCIH441 LUNG | 1.11 ± 0.021 | 1.09 ± 0.063 | 1.1 ± 0.038 | 1 ± 0.079 | 0.983 ± 0.026 | 0.932 ± 0.065 | 0.807 ± 0.04 | 0.655 ± 0.066 | 1.08 ± 0.077 | 1.15 ± 0.099 | 1.11 ± 0.087 | 1.12 ± 0.03 | 1.01 ± 0.051 | 0.846 ± 0.11 | 0.431 ± 0.033 | 0.414 ± 0.022 |
| NOS1 BONE | 1.12 ± 0.43 | 1.04 ± 0.052 | 1 ± 0.063 | 0.98 ± 0.099 | 0.79 ± 0.058 | 0.749 ± 0.028 | 0.28 ± 0.039 | 0.114 ± 0.0078 | 0.988 ± 0.11 | 1.02 ± 0.11 | 1.23 ± 0.23 | 1.29 ± 0.21 | 1.22 ± 0.1 | 1.04 ± 0.14 | 0.637 ± 0.083 | 0.506 ± 0.033 |
| NY BONE | 1.05 ± 0.035 | 1.03 ± 0.034 | 1.07 ± 0.033 | 1.016 ± 0.0061 | 0.91 ± 0.019 | 0.93 ± 0.045 | 0.558 ± 0.047 | 0.587 ± 0.031 | 1.05 ± 0.024 | 1.03 ± 0.02 | 1.18 ± 0.036 | 1.2 ± 0.04 | 0.82 ± 0.073 | 0.48 ± 0.0085 | 0.289 ± 0.0061 | 0.232 ± 0.0095 |
| OS25HAL BONE | 1.01 ± 0.045 | 1.04 ± 0.032 | 1.08 ± 0.0095 | 1 ± 0.018 | 0.924 ± 0.023 | 0.951 ± 0.031 | 0.375 ± 0.038 | 0.193 ± 0.0084 | 1.05 ± 0.029 | 1.05 ± 0.017 | 1.11 ± 0.034 | 0.982 ± 0.02 | 0.773 ± 0.041 | 0.533 ± 0.06 | 0.181 ± 0.01 | 0.102 ± 0.016 |
| OSHN BONE | 1.08 ± 0.05 | 1.07 ± 0.031 | 1.08 ± 0.018 | 1.05 ± 0.041 | 1.03 ± 0.035 | 1.01 ± 0.039 | 0.735 ± 0.057 | 0.0927 ± 0.013 | 1.09 ± 0.016 | 1.079 ± 0.01 | 1.15 ± 0.026 | 1.087 ± 0.0023 | 0.733 ± 0.018 | 0.565 ± 0.045 | 0.274 ± 0.028 | 0.258 ± 0.054 |
